From ChEMBL document CHEMBL1141452, “Advances in development of dopaminergic aporphinoids” (J Med Chem, 2007) come the findings set out here.

Molecules are shown by their SMILES.

Experiment [1] is described as follows: Inhibition of rat midbrain dopaminergic neuron firing. It counts as functional. The settings on record: read-out: ID50 (the source's name).
The target in the next experiment is D(2) dopamine receptor (Rattus norvegicus, UniProt P61169). Kind of experiment: Displacement of [3H]raclopride from rat dopamine D2 receptor.
Chain of D(2) dopamine receptor (P61169 whole entry): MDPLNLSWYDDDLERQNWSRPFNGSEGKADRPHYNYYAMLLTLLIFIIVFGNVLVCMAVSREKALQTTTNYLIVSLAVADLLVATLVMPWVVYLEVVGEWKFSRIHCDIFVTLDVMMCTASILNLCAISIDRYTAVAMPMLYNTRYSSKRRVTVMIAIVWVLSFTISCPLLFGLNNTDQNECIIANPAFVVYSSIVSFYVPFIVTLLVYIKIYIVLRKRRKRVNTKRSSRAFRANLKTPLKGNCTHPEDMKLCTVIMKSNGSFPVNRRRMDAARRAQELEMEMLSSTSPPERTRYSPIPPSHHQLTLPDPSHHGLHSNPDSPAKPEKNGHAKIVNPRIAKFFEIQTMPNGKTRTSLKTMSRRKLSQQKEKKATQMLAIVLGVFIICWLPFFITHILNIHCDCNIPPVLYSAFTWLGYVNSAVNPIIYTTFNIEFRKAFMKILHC
In experiment [2] the target is 5-hydroxytryptamine receptor 7 (Rattus norvegicus) (UniProt P32305). Kind of experiment: Displacement of [3H]5-HT from rat 5-HT7 receptor.
Chain of 5-hydroxytryptamine receptor 7 (Rattus norvegicus) (P32305 whole entry, looked up): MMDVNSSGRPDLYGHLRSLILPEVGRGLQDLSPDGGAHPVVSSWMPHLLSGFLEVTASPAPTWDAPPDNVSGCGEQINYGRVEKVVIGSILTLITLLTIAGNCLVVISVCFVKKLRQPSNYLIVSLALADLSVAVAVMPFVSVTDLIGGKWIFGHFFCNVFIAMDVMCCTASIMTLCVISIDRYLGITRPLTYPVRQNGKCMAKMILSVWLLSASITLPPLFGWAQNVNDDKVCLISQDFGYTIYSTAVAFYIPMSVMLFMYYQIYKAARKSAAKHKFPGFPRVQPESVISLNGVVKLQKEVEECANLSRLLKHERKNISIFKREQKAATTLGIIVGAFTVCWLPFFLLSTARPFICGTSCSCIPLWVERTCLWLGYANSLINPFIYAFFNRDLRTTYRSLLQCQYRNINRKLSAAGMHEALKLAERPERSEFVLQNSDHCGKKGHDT
The target in experiment [3] is T1, 5-hydroxytryptamine receptor 1A (Rattus norvegicus, UniProt P19327).
T1 sequence (P19327 whole entry): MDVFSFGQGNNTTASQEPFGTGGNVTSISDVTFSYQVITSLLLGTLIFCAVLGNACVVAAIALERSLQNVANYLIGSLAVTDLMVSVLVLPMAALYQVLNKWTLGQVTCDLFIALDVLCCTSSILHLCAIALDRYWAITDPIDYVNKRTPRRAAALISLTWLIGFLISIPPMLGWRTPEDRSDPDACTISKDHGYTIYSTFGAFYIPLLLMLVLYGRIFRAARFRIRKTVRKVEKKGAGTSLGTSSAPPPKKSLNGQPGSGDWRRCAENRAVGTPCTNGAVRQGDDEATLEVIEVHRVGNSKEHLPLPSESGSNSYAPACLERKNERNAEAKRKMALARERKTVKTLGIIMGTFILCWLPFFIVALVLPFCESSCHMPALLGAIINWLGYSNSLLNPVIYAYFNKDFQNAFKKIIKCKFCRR
Kind of experiment: Displacement of [3H]8-OH-DPAT from rat 5HT1A receptor.

For a further experiment, the target named is Tyrosine 3-monooxygenase (Homo sapiens, UniProt P07101). Kind of experiment: Inhibition of tyrosine hydroxylase.
Chain of Tyrosine 3-monooxygenase (P07101 whole entry): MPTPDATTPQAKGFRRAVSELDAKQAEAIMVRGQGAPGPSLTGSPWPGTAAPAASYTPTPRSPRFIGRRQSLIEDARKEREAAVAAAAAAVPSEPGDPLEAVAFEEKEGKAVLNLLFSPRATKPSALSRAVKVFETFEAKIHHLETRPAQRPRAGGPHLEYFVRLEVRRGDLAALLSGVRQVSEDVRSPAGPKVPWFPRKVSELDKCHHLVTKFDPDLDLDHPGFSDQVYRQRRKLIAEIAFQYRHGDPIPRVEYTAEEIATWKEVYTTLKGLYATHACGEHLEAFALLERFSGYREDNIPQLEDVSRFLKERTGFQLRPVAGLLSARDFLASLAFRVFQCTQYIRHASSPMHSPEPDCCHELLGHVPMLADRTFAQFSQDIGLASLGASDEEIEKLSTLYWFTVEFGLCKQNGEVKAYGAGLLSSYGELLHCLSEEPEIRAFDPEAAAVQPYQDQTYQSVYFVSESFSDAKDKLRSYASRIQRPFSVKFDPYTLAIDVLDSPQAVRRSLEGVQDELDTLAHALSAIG
A further experiment addresses D(1A) dopamine receptor (Rattus norvegicus, UniProt P18901). Kind of experiment: Displacement of [3H]SCH-23390 from rat dopamine D1 receptor.
The target in experiment [4] is Sodium-dependent dopamine transporter (Rattus norvegicus, UniProt P23977). Kind of experiment: Displacement of [3H]DA from rat DAT.
Chain of Sodium-dependent dopamine transporter (P23977 whole entry): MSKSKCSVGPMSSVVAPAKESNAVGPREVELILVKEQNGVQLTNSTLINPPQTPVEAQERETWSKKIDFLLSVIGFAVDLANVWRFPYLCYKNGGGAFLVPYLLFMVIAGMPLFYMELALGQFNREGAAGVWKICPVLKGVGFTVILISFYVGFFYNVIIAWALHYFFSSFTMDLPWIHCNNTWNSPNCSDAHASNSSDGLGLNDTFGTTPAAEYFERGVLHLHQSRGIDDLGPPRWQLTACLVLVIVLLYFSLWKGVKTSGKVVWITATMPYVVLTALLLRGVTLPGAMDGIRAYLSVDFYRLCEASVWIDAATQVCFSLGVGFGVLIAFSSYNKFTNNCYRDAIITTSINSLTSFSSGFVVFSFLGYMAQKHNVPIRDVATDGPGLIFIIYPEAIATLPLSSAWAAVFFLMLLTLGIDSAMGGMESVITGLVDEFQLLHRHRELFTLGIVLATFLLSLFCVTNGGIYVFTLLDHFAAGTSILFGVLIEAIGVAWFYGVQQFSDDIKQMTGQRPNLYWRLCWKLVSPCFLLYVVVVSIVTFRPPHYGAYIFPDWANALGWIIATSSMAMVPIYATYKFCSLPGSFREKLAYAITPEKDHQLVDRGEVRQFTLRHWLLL
The next experiment has as its system Cerebrum. Briefly: Inhibition of lipid peroxidation in rat cerebrum. It counts as functional, tissue-based.
The test system of the next experiment is PC-12. Kind of experiment: Reduction of dopamine level in catecholamine-inducing rat PC12 cells. It is filed as functional, cell-based.
For experiment [5], the system named is Rattus norvegicus. Briefly: Inhibition of apomorphine-induced yawning in rat at 40 mg/kg, ip. It counts as functional. Also on record: scale not given: the % may be the effect or the level left. The note with it: route intraperitoneal.
The test system of experiment [6] is Rattus norvegicus. Briefly: Displacement of [3H]SCH-23390 from rat dopamine D1 receptor at 40 mg/kg, ip. It is filed as functional. The note with it: route intraperitoneal.
The subject of experiment [7] is Rattus norvegicus. Kind of experiment: Inhibition of apomorphine-induced penile erection in rat at 40 mg/kg, ip. It is filed as functional. Also on record: scale not given: the % may be the effect or the level left. The note with it: route intraperitoneal.
Experiment [8] deals with Tyrosine 3-monooxygenase (Rattus norvegicus) (UniProt P04177). Briefly: Inhibition of tyrosine hydroxylase.
Chain of Tyrosine 3-monooxygenase (Rattus norvegicus) (P04177 whole entry, looked up): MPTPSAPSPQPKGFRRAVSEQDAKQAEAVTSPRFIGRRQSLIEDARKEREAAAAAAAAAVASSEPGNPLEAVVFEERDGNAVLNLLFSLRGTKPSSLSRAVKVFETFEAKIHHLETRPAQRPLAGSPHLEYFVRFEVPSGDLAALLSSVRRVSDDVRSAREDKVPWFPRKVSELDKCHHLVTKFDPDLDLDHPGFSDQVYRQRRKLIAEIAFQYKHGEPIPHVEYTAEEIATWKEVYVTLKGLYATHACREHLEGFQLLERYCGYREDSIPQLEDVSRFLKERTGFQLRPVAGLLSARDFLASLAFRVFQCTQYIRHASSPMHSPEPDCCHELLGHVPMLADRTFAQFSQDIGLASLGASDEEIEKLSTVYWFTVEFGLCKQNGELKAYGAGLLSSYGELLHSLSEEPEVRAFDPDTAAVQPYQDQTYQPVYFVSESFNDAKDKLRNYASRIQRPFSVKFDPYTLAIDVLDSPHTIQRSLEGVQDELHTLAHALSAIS
Experiment [9] has as its target 5-hydroxytryptamine receptor 7 (Homo sapiens, UniProt P34969). Briefly: Binding affinity at 5HT7 receptor.
For experiment [10], the system named is Rattus norvegicus. Kind of experiment: Displacement of [3H]raclopride from rat dopamine D2 receptor at 40 mg/kg, ip. It counts as functional. The note with it: route intraperitoneal.

Chain of D(1A) dopamine receptor (P18901 whole entry): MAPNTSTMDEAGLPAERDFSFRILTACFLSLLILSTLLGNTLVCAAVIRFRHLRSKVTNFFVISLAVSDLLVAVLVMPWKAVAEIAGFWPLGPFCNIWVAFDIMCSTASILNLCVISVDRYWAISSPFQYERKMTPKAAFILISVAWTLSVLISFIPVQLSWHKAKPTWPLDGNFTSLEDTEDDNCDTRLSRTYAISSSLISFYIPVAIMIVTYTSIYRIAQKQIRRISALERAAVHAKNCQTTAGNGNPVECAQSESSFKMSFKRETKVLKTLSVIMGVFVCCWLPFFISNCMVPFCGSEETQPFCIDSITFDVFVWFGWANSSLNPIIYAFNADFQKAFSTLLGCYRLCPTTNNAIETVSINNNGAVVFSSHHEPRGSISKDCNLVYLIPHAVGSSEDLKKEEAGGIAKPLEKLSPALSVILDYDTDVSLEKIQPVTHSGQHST
Chain of 5-hydroxytryptamine receptor 7 (P34969 whole entry): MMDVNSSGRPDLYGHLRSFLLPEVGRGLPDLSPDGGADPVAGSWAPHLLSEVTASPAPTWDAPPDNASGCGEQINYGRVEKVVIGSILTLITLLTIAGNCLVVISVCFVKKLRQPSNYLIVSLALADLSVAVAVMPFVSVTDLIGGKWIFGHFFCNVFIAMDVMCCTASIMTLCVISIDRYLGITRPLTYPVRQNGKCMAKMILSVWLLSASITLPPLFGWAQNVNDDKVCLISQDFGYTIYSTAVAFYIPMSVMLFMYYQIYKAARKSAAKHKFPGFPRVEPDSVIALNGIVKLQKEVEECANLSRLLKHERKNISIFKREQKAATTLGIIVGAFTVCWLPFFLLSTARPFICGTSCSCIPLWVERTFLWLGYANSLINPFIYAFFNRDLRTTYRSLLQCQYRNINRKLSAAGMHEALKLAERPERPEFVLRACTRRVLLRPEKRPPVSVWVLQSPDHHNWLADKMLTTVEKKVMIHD

For `CN1CCc2cccc3c2[C@@H]1Cc1ccc(O)c(O)c1-3` [(S)APOMORPHINE], in experiment [1], the ED50 came to 8.4 µmol/kg.
On to `CN1CCc2ccc3c4c2[C@H]1Cc1cccc(c1-4)[C@@]3(C)O`, for which the Ki was found to be 180 nM on D(2) dopamine receptor, 28 nM in experiment [2] and 310 nM in [3].
Take `C[C@H]1c2cccc3c2-c2c1ccc1c2[C@@H](C3)N(C)CC1`: the Ki on D(2) dopamine receptor worked out at 39 nM; in [2] it was 6 nM; in experiment [3] it was 31 nM.
In the case of `C[C@@H]1c2cccc3c2-c2c1ccc1c2[C@@H](C3)N(C)CC1`, the Ki at D(2) dopamine receptor turned out to be 19 nM; in [2], 3.3 nM; in experiment [3] it was 5.1 nM.
Take `CCCN1CCc2cccc3c2[C@H]1Cc1cccc(O)c1-3`: the ED50 in experiment [1] came to 0.0047 µmol/kg. This compound gave an IC50 at Tyrosine 3-monooxygenase of 42000 nM.
As for `CN1CCc2ccc3c4c2[C@H]1Cc1cccc(c1-4)[C@H]3N`, the figures for the Ki (on D(2) dopamine receptor; in experiment [2]; in experiment [3]) were 260 nM, 13 nM and 140 nM, respectively.
On to `COc1c(O)c2c3c(c1OC)CCN(C)C3Cc1ccccc1-2` (stereo not drawn), for which the IC50 worked out at 2800 nM on D(2) dopamine receptor, 17200 nM on D(1A) dopamine receptor and 40000 nM in [4].
For the compound `Cc1cccc(O)c1-c1cccc2c1-c1cccc3c1[C@@H](C2)N(C)CC3` (stereo in doubt; 59), the Ki at D(2) dopamine receptor is above 100000 nM; in experiment [2], 4.3 nM; in experiment [3], 300000 nM.
As for `CN1CCc2cc3c(c4c2C1Cc1cccc(O)c1-4)OCO3` (stereo not drawn) [PUKATEINE], the IC50 worked out at 600 nM at D(2) dopamine receptor, 400 nM on D(1A) dopamine receptor, 46000 nM in experiment [4] and 15000 nM with Cerebrum.
As for `CN1CCc2ccc3c4c2[C@H]1Cc1cccc(c1-4)[C@@H]3N`, the values for the Ki in experiment [2] and in experiment [3] were 18 nM and 360 nM, respectively.
Regarding `CN1CCc2ccc3c(=O)[nH]c4cccc5c4c3c2[C@H]1C5`, the Ki was 6100 nM on D(2) dopamine receptor, 340 nM in experiment [2] and 370 nM in [3].
With `COc1ccc2c(c1O)-c1c3c(cc4c1[C@H](C2)N(C)CC4)OCO3` [(S)-BULBOCAPNINE], the IC50 in the experiment on PC-12 stood at 27000 nM.
With `Cc1cccc(O)c1-c1cccc2c1-c1cccc3c1[C@@H](C2)N(C)CC3` (stereo in doubt; 60), the results for the Ki (on D(2) dopamine receptor; in [2]; in experiment [3]) were above 100000 nM, 23 nM and 49000 nM, respectively.
In the case of `COc1cc2c(cc1O)C[C@H]1c3c(cc(O)c(OC)c3-2)CCN1C` [BOLDINE], the values for the Activity in the experiment on Rattus norvegicus [5], in the experiment with Rattus norvegicus [6] and in the experiment with Rattus norvegicus [7] were 50%, 25% and 50%, respectively.
As for `CCCN1CCc2cccc3c2[C@@H]1Cc1ccc(O)c(O)c1-3`, the IC50 in experiment [8] amounted to 1000 nM. The ED50 in experiment [1] came out at 1.6 µmol/kg.
With `COc1cccc2c1-c1c3c(cc4c1C(C2)N(C)CC4)OCO3` (stereo not drawn), the IC50 at D(2) dopamine receptor was above 100000 nM; on D(1A) dopamine receptor, above 100000 nM; in experiment [4], 32000 nM.
For `CN1CCc2cccc3c2[C@H]1Cc1ccc(O)c(O)c1-3` [APOMORPHINE], the ED50 in [1] worked out at 0.018 µmol/kg.
As to `CN1CCc2ccc3[nH]c(=O)c4cccc5c4c3c2[C@H]1C5`, the Ki at D(2) dopamine receptor is 55 nM; in [2], 55 nM; in experiment [3], 180 nM; in [9], 55 nM.
For `COc1cc2c3c(c1OC)-c1c(ccc(O)c1O)CC3N(C)CC2` (stereo not drawn) [SUAVEOLINE], the results for the IC50 (at D(1A) dopamine receptor; in experiment [4]) were 63000 nM and above 100000 nM, respectively.
Regarding `CO[C@@]1(C)c2cccc3c2-c2c1ccc1c2[C@@H](C3)N(C)CC1`, the Ki came to 71 nM on D(2) dopamine receptor, 1.1 nM in experiment [2] and 17 nM in experiment [3].
Taken in the same sequence, the figures for `CC(=O)N[C@@H]1c2cccc3c2-c2c1ccc1c2[C@@H](C3)N(C)CC1` were 3600 nM, 540 nM and 200 nM.
On to `CCCN1CCc2cccc3c2[C@@H]1Cc1cccc(O)c1-3`, for which the IC50 on Tyrosine 3-monooxygenase is 87000 nM.
For the compound `CN1CCc2ccc3c(=O)oc4cccc5c4c3c2[C@H]1C5`, the Ki on D(2) dopamine receptor is 270 nM; in experiment [2], 1500 nM; in [3], 2000 nM.
Taken in the same sequence, the figures for `CN1CCc2ccc3oc(=O)c4cccc5c4c3c2[C@H]1C5` were 540 nM, 280 nM and 1150 nM.
For `COc1cc2c(cc1OC)-c1c(OC)c(OC)cc3c1[C@H](C2)N(C)CC3` [GLAUCINE], the values for the Ki at D(2) dopamine receptor and on D(1A) dopamine receptor were 2800 nM and 2900 nM, respectively. Also, the Activity with Rattus norvegicus [5], with Rattus norvegicus [6], in the experiment on Rattus norvegicus [10] and with Rattus norvegicus [7] was 50% throughout.
Turning to `COc1ccc2c(c1O)Oc1c(O)ccc3c1[C@H](C2)N(C)CC3` [CLAVICULINE], the IC50 at D(2) dopamine receptor is 1500 nM; at D(1A) dopamine receptor, 1000 nM; in experiment [4], above 100000 nM.
For `CO[C@]1(C)c2cccc3c2-c2c1ccc1c2[C@@H](C3)N(C)CC1`, the Ki at D(2) dopamine receptor is 7 nM; in experiment [2] it was 1.1 nM; in [3], 17 nM.
Taken in the same sequence, the figures for `Cc1cccc(C#N)c1-c1cccc2c1-c1cccc3c1[C@@H](C2)N(C)CC3` (stereo in doubt; 57) were 2500 nM, 21 nM and 800000 nM.
Consider `COc1c(O)c2c3c(nccc3c1OC)C(C)(C)c1cc(O)ccc1-2` [MELOSMINE], for which the IC50 at D(2) dopamine receptor stood at 80000 nM; on D(1A) dopamine receptor, 12500 nM; in [4], 24600 nM.
The compound `CCCN1CCc2cccc3c2[C@H]1Cc1ccc(O)c(O)c1-3` [R-N-PROPYLNORAPOMORPHINE] had an IC50 in experiment [8] of 300 nM. Moreover, the ED50 in experiment [1] was 0.002 µmol/kg.
For the compound `CC(=O)N[C@H]1c2cccc3c2-c2c1ccc1c2[C@@H](C3)N(C)CC1`, the Ki at D(2) dopamine receptor was found to be 8000 nM; in experiment [2] it was 1320 nM; in experiment [3], 720 nM.
Taken in the same sequence, the figures for `CN1CCc2ccc3c4c2[C@@]1(C)Cc1cccc(c1-4)C3` were 83 nM, 7 nM and 41 nM.
